Reference: the supplement of paper PMC10307832

Tests used:
Test in all cases: relative viability (nuclei count vs DMSO), 5 days (fraction); higher = more cells survive
[1] = compound: O=C(Nc1c[nH]nc1-c1nc2ccc(CN3CCOCC3)cc2[nH]1)NC1CC1 [AT9283] + CC(C)C[C@H](NC(=O)[C@H](Cc1ccccc1)NC(=O)c1cnccn1)B(O)O [Bortezomib] (partner 0.002 µM)
Outline: (§1)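 Relative viability equals treated-well nuclei counts divided by vehicle-well nuclei counts. Counts came from 4× images of lung cancer cell lines grown in 1536-well plates for 5 days after pin-tool dosing on the day after seeding. Dosing used one drug alone or a fixed anchor-drug dose plus five library-drug doses (not always all listed) in √10 steps, and values are medians of duplicate plates.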

[2] = compound: O=C(Nc1c[nH]nc1-c1nc2ccc(CN3CCOCC3)cc2[nH]1)NC1CC1 [AT9283] + C[C@]1(O)C[C@@H](c2nc(-c3ccc4ccc(-c5ccccc5)nc4c3)c3c(N)nccn32)C1 [Linsitinib] (partner 1 µM)
Outline: as §1

[3] = compound: C#Cc1cccc(Nc2ncnc3cc(OCCOC)c(OCCOC)cc23)c1 [Erlotinib] + Cc1nc(NC(=O)N2CCC[C@H]2C(N)=O)sc1-c1ccnc(C(C)(C)C(F)(F)F)c1 [Alpelisib] (partner 2 µM)
Outline: as §1

[4] = compound: C#Cc1cccc(Nc2ncnc3cc(OCCOC)c(OCCOC)cc23)c1 [Erlotinib] + COc1cccc2cc(-c3nc([C@H]4CC[C@H](C(=O)O)CC4)n4ncnc(N)c34)[nH]c12 [OSI-027] (partner 0.5 µM)
Outline: as §1

[5] = compound: O=C(Nc1c[nH]nc1-c1nc2ccc(CN3CCOCC3)cc2[nH]1)NC1CC1 [AT9283] + Cc1nc(Nc2ncc(C(=O)Nc3c(C)cccc3Cl)s2)cc(N2CCN(CCO)CC2)n1 [Dasatinib] (partner 0.075 µM)
Outline: as §1

Cell Line	relative viability ([1]; first compound 0.003 µM)	relative viability ([1]; first compound 0.03 µM)	relative viability ([1]; first compound 0.09487 µM)	relative viability ([1]; first compound 0.3 µM)	relative viability ([2]; first compound 0.003 µM)	relative viability ([2]; first compound 0.03 µM)	relative viability ([2]; first compound 0.09487 µM)	relative viability ([2]; first compound 0.3 µM)	relative viability ([3]; first compound 0.02 µM)	relative viability ([3]; first compound 0.2 µM)	relative viability ([3]; first compound 2 µM)	relative viability ([4]; first compound 0.02 µM)	relative viability ([4]; first compound 0.2 µM)	relative viability ([4]; first compound 0.6325 µM)	relative viability ([4]; first compound 2 µM)	relative viability ([5]; first compound 0.003 µM)	relative viability ([5]; first compound 0.03 µM)	relative viability ([5]; first compound 0.09487 µM)	relative viability ([5]; first compound 0.3 µM)	relative viability ([3]; first compound 0.6325 µM)
NCI-H1437	0.496	0.398	0.175	0.164	1.06	0.691	0.181	0.158	0.924	0.965	0.854	0.856	0.919	0.832	0.716	0.342	0.379	0.224	0.114	–
NCI-H1563	0.859	0.79	0.822	0.703	1.26	0.892	0.832	0.757	0.931	–	0.799	0.768	0.867	0.801	0.663	0.444	0.444	0.42	0.327	0.952
NCI-H1651	0.914	0.897	0.902	0.618	1.05	0.864	0.348	0.357	1.02	0.873	0.944	0.628	0.698	–	0.482	0.442	0.368	0.319	0.212	1.05
NCI-H1666	0.806	0.442	0.297	0.298	0.964	0.779	0.265	0.355	0.901	0.631	0.348	0.83	0.741	0.624	0.565	0.866	0.682	0.574	0.431	0.504
NCI-H1734	0.904	0.349	0.296	0.223	0.85	0.583	0.288	0.294	0.704	0.61	0.602	0.621	0.586	0.608	0.504	0.332	0.301	0.187	0.158	0.84
NCI-H1755	0.983	0.91	0.498	0.529	0.996	0.847	0.516	0.404	1.01	0.933	0.872	0.757	0.776	0.786	0.619	0.451	0.437	0.265	0.272	0.937
NCI-H1792	0.918	0.985	0.961	0.701	0.492	0.629	0.192	0.117	–	0.595	0.49	0.728	0.561	0.586	0.362	0.894	0.886	0.748	0.538	0.77
NCI-H1915	0.769	0.952	0.887	0.341	1.06	1.01	0.529	0.239	1.09	–	–	0.651	0.713	0.679	0.55	0.276	0.289	0.141	0.141	1.09
NCI-H1975	0.388	0.264	0.173	0.179	0.932	0.769	0.341	0.223	0.717	0.696	0.454	0.704	0.676	0.49	0.381	0.401	0.461	0.389	0.237	0.535
NCI-H1993	1.31	0.997	0.576	0.504	0.788	0.686	0.61	0.588	0.73	0.644	0.739	0.6	0.534	0.555	0.699	0.618	0.557	0.462	0.448	0.647
NCI-H2009	1.01	0.639	0.363	0.233	1.21	0.704	0.315	0.323	1.24	1.16	1.13	0.759	0.653	0.65	0.414	0.308	0.212	0.124	0.099	1.17
NCI-H2023	1	0.918	0.174	0.123	0.765	0.308	0.135	0.132	0.64	0.525	0.401	0.428	0.338	0.285	0.192	0.526	0.42	0.182	0.101	0.453
NCI-H2085	1.03	0.937	0.984	0.485	0.847	0.687	0.245	0.214	0.935	0.81	0.645	0.787	0.448	0.349	0.245	0.231	0.238	0.224	0.2	0.673
NCI-H2087	0.753	0.626	0.447	0.23	1.08	0.542	0.339	0.245	1.3	–	1.04	0.615	–	0.533	0.384	0.765	0.309	0.122	0.0986	1.09
NCI-H2126	1.11	1.09	1.1	0.528	0.685	0.758	0.714	0.276	0.781	0.644	0.379	0.668	0.592	0.532	0.366	0.587	0.602	0.439	0.271	0.537
NCI-H2228	1.04	0.529	0.118	0.176	0.823	0.632	0.17	0.175	0.906	0.858	0.642	0.643	0.537	0.525	0.366	0.491	0.503	0.307	0.0747	0.716
